Test results: a melting point compilation (Tetko et al.; mined from patent text by program, amines drawn as free bases though some values may be those of a salt)

Compared with `O=C1C2CCCC2=Nc2ccccc2N1Cc1ccccc1F` (stereo unspecified), `O=C(O)CN1C(=O)C(NC(CCc2ccccc2)C(=O)O)CCc2ccccc21` (stereo unspecified) is higher in melting point: 135 to 137 °C for the first, 256 to 259 °C for the second.

Compared with `NC(=O)N(O)CCn1cc(Sc2ccccc2)c2ccccc21`, `CC(C)c1ccccc1SC1=C(O)CC(CCc2ccccc2)(c2ccccc2)OC1=O` (stereo unspecified) is lower in melting point: 95 to 99 °C for the first, 66 to 67 °C for the second.

Compared with `CC1(C)N=C(NC#N)N=C(NC(=O)c2nc(Cl)c(N)nc2N)N1`, `N#Cc1cc(CO)nc(C(=O)Nc2cccc(Cl)c2)c1` is lower in melting point: 342 °C for the first, 167 °C for the second.

Compared with `C1=CNC=c2ccccc2=C1`, `CC1c2ccccc2-c2[nH]c3ccccc3c21` (stereo unspecified) is higher in melting point: 128 °C for the first, 153 to 155 °C for the second.

First: CC(C)n1nc(-c2c(NCc3ccccc3)nc(N)nc2-c2ccc(F)cc2)ccc1=O
Second: Cc1nc(-c2nc(-c3ccc(F)cc3)c(-c3ccc(S(C)(=O)=O)cc3)s2)cs1
The melting point of the first is higher: 191 to 192 °C for the first, 184 to 186 °C for the second.

First: OCCn1ccc2ncnc(Nc3ccc(Oc4cccc5sncc45)c(Cl)c3)c21
Second: COc1ccc(-n2nc(Cl)cc2-c2ccc(OCCNC(N)=O)cc2)cn1
The melting point of the first is higher: 218 to 220 °C for the first, 156 to 158 °C for the second.

Compared with `CCc1noc(-c2cc3c(cn2)[nH]c2ccccc23)n1`, `CCOc1cccc(-c2n[nH]c(-c3ccccc3C)n2)c1` is lower in melting point: 146 to 149 °C for the first, 84 to 86 °C for the second.

Compared with `CN1C(C(=O)Nc2cccccc2=O)=C(O)c2sccc2S1(=O)=O`, `O=C(Nc1cc(C(F)(F)F)c[nH]c1=O)c1ccccc1` is lower in melting point: 242 to 245 °C for the first, 207 to 210 °C for the second.

First: Cc1c[nH]c(-c2nc([C@H]3CCCN(C(=O)c4ccc(F)cc4)C3)no2)c1
Second: O=C(Nc1cccc(Br)n1)c1cc(-c2ccc(F)cc2)n(C2CCCCO2)n1 (stereo unspecified)
The melting point of the first is higher: 183 °C for the first, 151 to 152 °C for the second.

Compared with `CC(=O)c1cc(C(=O)OCc2ccco2)c(C2=NC(C)(C(C)C)C(=O)N2)nc1C` (stereo unspecified), `CC(C)OC(=O)c1cc(O)cc2cc(-c3ccc(O)cc3)oc12` is higher in melting point: 133 to 136 °C for the first, > 250 °C for the second.

Compared with `O=C(CC(=O)C(F)(F)F)c1ccc(OCc2ccccc2)cc1`, `Cc1ccc(OCc2ccccc2)cc1NCc1ccccc1` is lower in melting point: 220 to 224 °C for the first, 66 to 67 °C for the second.

First: CCOC(=O)c1cc(Cl)nc(Cl)n1
Second: CCOC(=O)c1cc2ccccc2nn1
The melting point of the first is lower: 31.6 °C for the first, 158 to 160 °C for the second.

Compared with `CC(=O)c1c[nH]c2cn[nH]c2c1=O`, `CN1CCC(c2c[nH]c3ccc(/C=C/S(N)(=O)=O)cc23)CC1` is lower in melting point: > 320 °C for the first, 208 to 209 °C for the second.

First: Cc1oc(-c2ccc(Cl)cc2)cc1C(=O)Nc1cc(Cl)ccc1-c1noc(=O)[nH]1
Second: Cc1ccc(C)c2c(=O)n(CCCN3CC=C(c4ccc(Cl)cc4)CC3)c(=O)[nH]c12
The melting point of the first is higher: 248 to 251 °C for the first, 212 to 220 °C for the second.

First: COCCN(C)Cc1ccc(NC(=O)C#Cc2ccc(-c3ccc(Cl)cc3)cc2)cc1
Second: CC(C)c1ccc(-c2ccc(/C=C/C(=O)Nc3ccc(CN(C)C4CCOCC4)cc3)s2)cc1
The melting point of the first is lower: 130 to 133 °C for the first, 187 to 189 °C for the second.

First: CCCN(Cc1cccc(-c2noc(C)n2)c1)C(=O)Nc1ccc(Br)cc1
Second: COc1cccc2cc(C(=O)c3ccc(Cl)c(N)c3)oc12
The melting point of the first is lower: 113 to 114 °C for the first, 180 °C for the second.

First: Cc1nc(-n2cnn(Cc3ccc(F)cc3)c2=O)sc1C(=O)NCc1nccs1
Second: CC(=O)OCc1c(C)n(C[C@H]2C[C@@H]2C)c2c(OCc3ccc(F)cc3)nncc12
The melting point of the first is higher: 189 to 190 °C for the first, 122 to 123 °C for the second.

Compared with `CCOC(=O)C1=C(c2ccccc2)Nc2n[nH]cc2C1c1cccc(Cl)c1Cl` (stereo unspecified), `COC(=O)[C@H](Cc1cc(Cl)c(OCc2cccc3cc(-c4ccccc4)oc23)c(Cl)c1)NC(=O)C(F)(F)F` is lower in melting point: 214 °C for the first, 141 to 145 °C for the second.

First: O=C(c1ccc(F)cc1)N1CCc2cc(S(=O)(=O)N3CC(c4ccccc4)NC3=O)ccc21 (stereo unspecified)
Second: COc1ccc(C(=O)N2CCN(c3cc4ccccc4cn3)CC2)cc1
The melting point of the first is lower: 134 °C for the first, 156 to 159 °C for the second.

First: Cc1ccnc(C(O)c2ccc(N)cc2)c1 (stereo unspecified)
Second: Cc1ccc(Cc2ccc3nc(N)sc3c2)s1
The melting point of the first is lower: 156 to 158 °C for the first, 179 to 181 °C for the second.

Compared with `NS(=O)(=O)c1cc2c(s1)CNCC2`, `NS(=O)(=O)c1ccc(S(=O)(=O)CCCc2ccc(O)cc2)s1` is lower in melting point: 172 to 175 °C for the first, 112 to 115 °C for the second.

First: O=C(NCc1ccncc1)c1cc2ccnc(N(Cc3ccccc3)Cc3ccccc3)c2[nH]1
Second: O=S(=O)(c1ccc2ccc(Br)cc2c1)N(Cc1ccccc1)Cc1ccccc1
The melting point of the first is lower: 119 to 120 °C for the first, 127 to 129 °C for the second.

First: CCCC1=C(C#N)C(c2cccc3c2OCCC3)c2c[nH]nc2N1 (stereo unspecified)
Second: CCOC(=O)C1=C(C)NC(C#N)=C(C(=O)OCC)C1c1ccccc1C(F)(F)F (stereo unspecified)
The melting point of the first is higher: 230 °C for the first, 140 to 143 °C for the second.

First: Cn1c([N+](=O)[O-])cnc1C=Cc1nnc(-c2ccccc2)s1
Second: CC(O)CNc1c([N+](=O)[O-])cnc2ccccc12 (stereo unspecified)
The melting point of the first is higher: 257 °C for the first, 209 to 210 °C for the second.

Compared with `CCN(C(=O)n1nc2c(Cl)c(Cl)c(Cl)c(Cl)c2n1)c1ccccc1`, `CC(C)c1nc(COC(N)=O)n(Cc2ccccn2)c1Sc1cc(Cl)cc(Cl)c1` is lower in melting point: 157 °C for the first, 127 to 130 °C for the second.

First: OCCc1coc(-c2ccc3ccccc3c2)n1
Second: O=C(O)C(=O)c1ccc(OCCOc2ccc3ccccc3c2)s1
The melting point of the first is lower: 96 to 98 °C for the first, 152 to 154 °C for the second.

First: CCC(CC)N(Cc1ccc(C(=O)O)cc1)S(=O)(=O)c1ccc(OC)cc1
Second: CC#CCOc1ccc(S(=O)(=O)C2(C(=O)NO)CCCN(Cc3ccc(Cl)cc3)C2)cc1 (stereo unspecified)
The melting point of the first is lower: 86 to 87 °C for the first, 124 °C for the second.

First: O=C(O)CCC(CCCCNS(=O)(=O)c1ccc(Cl)cc1)CCCn1ccnc1 (stereo unspecified)
Second: Cc1c(OCCn2ccnc2)ccc2c1CC/C(=C\c1cccs1)C2=O
The melting point of the first is lower: 136 to 138 °C for the first, 182 to 184 °C for the second.

First: COC(=O)CC(NC(=O)C1CC=CCC1)C(C)=O (stereo unspecified)
Second: CC(=O)N1CCC(C(=O)c2cc(F)ccc2F)CC1
The melting point of the first is lower: 69 to 70 °C for the first, 82 to 87 °C for the second.

First: COc1ccc(C2(C#Cc3cnc(NC(C)=O)nc3)CCC(=O)CC2)cc1OC1CCCC1
Second: COC(=O)c1cn(-c2ccc(OC)c(OC3CC4CCC3C4)c2)c2ccccc12 (stereo unspecified)
The melting point of the first is higher: 170 to 171 °C for the first, 120 to 122 °C for the second.

First: CC(=O)Oc1ccc2c(c1)CC1(C)Cc3ccccc3C1=CC2C (stereo unspecified)
Second: Cc1nc2c(O[C@@H]3c4ccccc4C[C@H]3O)cccn2c1N=O (relative stereo)
The melting point of the first is lower: 131 to 133 °C for the first, 178 to 179 °C for the second.

Compared with `Cc1c2n(c3ccccc13)CC(C)(C)C2O` (stereo unspecified), `Cc1cn(C(C)(C)C(=O)N(C)C)nc1-c1ccccc1` is higher in melting point: 82 to 85 °C for the first, 107 to 109 °C for the second.

Compared with `O=C1OCCN1CCn1ccnc1[N+](=O)[O-]`, `N#Cc1cccc(CCN2CCN(Cc3ccc(Cl)nc3)C2=N[N+](=O)[O-])c1` is higher in melting point: 103 to 104 °C for the first, 204 to 206 °C for the second.

First: CCOC(=O)N1N=C(c2ccc([N+](=O)[O-])cc2)c2cc(Cl)c(Cl)cc2CC1C (stereo unspecified)
Second: O=[N+]([O-])c1cc(-c2cccc3ccccc23)c2nc(Cl)ccc2c1
The melting point of the first is lower: 106 to 108 °C for the first, 224 to 225 °C for the second.

First: CC(C)[C@H](NS(=O)(=O)c1ccc2c(Cl)cnc(Cl)c2c1)C(=O)OC(C)(C)C
Second: COc1cc(OC)nc(NC(=O)NS(=O)(=O)c2nccn2-c2ccccn2)n1
The melting point of the first is lower: 127 to 129 °C for the first, 146 to 149 °C for the second.

Compared with `Nc1nc2c(ncn2CCC(COC=O)COC=O)c(=O)[nH]1`, `Nc1nc2c(ncn2CC(CO)CCO)c(=O)[nH]1` (stereo unspecified) is higher in melting point: 195 to 198 °C for the first, 235 °C for the second.

First: COc1ccccc1N1CCN(CCN(C(=O)C2CCCCC2)c2ccccc2[N+](=O)[O-])CC1
Second: COc1ccc2c(c1)C=C(C(=O)NCCCCN1CCN(c3ccccc3OC)CC1)CO2
The melting point of the first is lower: 119 to 121 °C for the first, 165 °C for the second.

First: O=C(Nc1n[nH]c2cc(Cl)ccc12)c1ccccc1
Second: O=C(Nc1ccccn1)c1c(C(F)(F)F)nc(-c2ccccc2)c(-c2ccccc2)c1O
The melting point of the first is lower: 188 °C for the first, 208 to 210 °C for the second.

Compared with `COc1ccc(OCc2cn(C34CC5CC(CC(C5)C3)C4)nn2)cc1OC`, `CCCOc1ccc(O)cc1OC` is lower in melting point: 108 to 112 °C for the first, 54 to 56 °C for the second.

Compared with `Clc1cccc(Cn2ccc(CN3CCC(c4ccccc4)(c4ccccc4)CC3)n2)c1`, `CCc1cccc(NC(=O)NC2N=C(c3ccccc3F)c3ccccc3N(CC(=O)N3CC4CCC(CC4)C3)C2=O)c1` (racemic) is higher in melting point: 136 to 137 °C for the first, 185 to 192 °C for the second.

First: CC(Sc1cc(C(C)(C)C)c(O)c(C(C)(C)C)c1)C(=O)O (stereo unspecified)
Second: CC(C)(C)OC(=O)N=C(NC(=O)OC(C)(C)C)N1CCCC1
The melting point of the first is higher: 110 to 113 °C for the first, 88 to 91 °C for the second.

`COc1c2c(c(OC)c(OC)c1OC)CCC(CCOc1ccc(-c3ccccc3)cc1)CC2` and `COC(=O)c1c(OC(=O)N(c2ccccc2)c2ccccc2)cc(C(F)(F)F)nc1C(F)(F)F` cannot be ordered by melting point: 115 to 120 °C for the first, 114 to 116 °C for the second.

First: O=C1Cc2cc(F)c(F)cc2N1
Second: COc1ccc2c(c1)C1=C(CC2)NC(=O)CC1
The melting point of the first is lower: 187 to 190 °C for the first, 227 to 228 °C for the second.

Compared with `CC1(C(O)(COc2ccc(Cl)cc2)Cn2cncn2)CC1(F)F` (stereo unspecified), `CC(C)(CO)Oc1ccccc1` is lower in melting point: 110 °C for the first, 91 to 92 °C for the second.

First: CCCOc1nc(N)nc2nc[nH]c12
Second: CCCOc1ccc(CO)cc1N
The melting point of the first is higher: 198 to 200 °C for the first, 94 to 95 °C for the second.

First: CC(=O)OCC1OC(n2cc(C(I)=CI)c(=O)[nH]c2=O)C(OC(C)=O)C1OC(C)=O (stereo unspecified)
Second: Nc1nc2c(c(=O)[nH]1)n(CC(=O)c1ccc(Cl)cc1)c(=O)n2C1OC(CO)C(O)C1O (stereo unspecified)
The melting point of the first is lower: 83 to 85 °C for the first, > 230 °C for the second.

First: CC(C)(C#N)c1cc(Cc2cncnc2)cc(C(C)(C)C#N)c1
Second: CN1CCN(Cc2cc(N)cc(C(F)(F)F)c2)CC1
The melting point of the first is higher: 132 to 134 °C for the first, 98 to 99 °C for the second.

Compared with `C=CC[C@H]1C[C@@](OS(C)(=O)=O)(C(=O)OC)C[C@@H](OC(=O)c2ccccc2)[C@@H]1OS(C)(=O)=O`, `CCOP(=O)(OCC)C(C)NC(=O)c1cc(C)cc(OC)c1C1=CC(=O)c2c(O)cccc2C1=O` (stereo unspecified) is lower in melting point: 154 to 155 °C for the first, 130 to 132 °C for the second.

First: CC1=CCC(=C2C(=O)C3(CS(=O)(=O)O)CCC2C3(C)C)C=C1 (stereo unspecified)
Second: C#CC(C)N1C(=O)c2ccccc2C1=O (stereo unspecified)
The melting point of the first is higher: 220 °C for the first, 104 to 106 °C for the second.

First: CC(C)NCC(O)COc1cccc2nsnc12 (stereo unspecified)
Second: CCOP(=O)(OCC)C(Nc1ccccn1)P(=O)(OCC)OCC
The melting point of the first is higher: 100 to 102 °C for the first, 63 to 66 °C for the second.

For `Cn1c(C(F)(F)F)cc(=O)n(-c2c(F)cc(Br)c(O)c2N)c1=O`, the melting point was 98 to 100 °C.
